The subject of data set [1] is human neutrophils. As to the kind of experiment: Neutrophils' apoptosis versus necrosis, Annexin V/PI flow cytometry. It is filed as cell-based. The note with it: for Cytotoxicity in neutrophils: 45 min; for Induction of late apoptosis in neutrophils: Figure S154. The procedure: (§1) The effect of the compounds under study on neutrophil viability was evaluated using flow cytometry. This assessment involved staining with Annexin V (AV) and propidium iodide (PI) from the BD Pharmingen™ FITC Annexin V Apoptosis Detection Kit, following the manufacturer’s protocol. […] Afterwards, the content of each well was transferred to a conical microtube and centrifuged at 400× g, at 20 °C, for 5 min. The neutrophils’ pellets were resuspended in PBS and centrifuged again under the previous conditions. The supernatant was removed, and the solution of Annexin V and PI from the kit was added, resuspending the pellet. The neutrophils were incubated in the dark at room temperature for 15 min and then diluted (dilution factor = 6) with the diluted binding buffer. […] In the flow cytometer, the fluorescence signal of at least 10,000 neutrophils per sample was collected in logarithmic mode and followed in channels 1 and 3. A polygon gate, corresponding to the neutrophil’s population, was drawn according to the light-scattering properties of neutrophils in a forward versus scatter plot. Thus, debris and other blood cells were unaccounted for in the samples. The green fluorescence corresponding to Annexin V was monitored in channel 1 and plotted as a histogram of FL1 staining, whereas the fluorescence corresponding to PI was monitored in channel 3 and plotted in the same histogram as FL3 staining. Neutrophils’ cell death was expressed as a relative percentage of viable, apoptotic, late apoptotic, and necrotic cells compared to a negative control (untreated cells).
(§2) The eﬀect of the compounds under study on neutrophil viability was evaluated using ﬂow cytometry.
(§3) This assessment involved staining with Annexin V (AV) and propidium iodide (PI) from the BD Pharmingen™ FITC Annexin V Apoptosis Detection Kit, following the manufacturer's protocol. Neutrophils (1 x10^6 cells/mL) were incubated in a 24-well plate in the dark at 37 °C for 45 minutes with the positive control (Triton X-100, […]
(§4) Afterwards, the content of each well was transferred to a conical microtube and centrifuged at 400g, at 20 °C, for 5 minutes. The neutrophils’ pellets were resuspended in PBS and centrifuged again under the previous conditions. The supernatant was removed, and the solution of Annexin V and PI from the kit was added, resuspending the pellet. The neutrophils were incubated in the dark at room temperature for 15 minutes and then diluted (dilution factor = 6) with the diluted binding buﬀer. The measurements were performed in a n Accuri C6 ﬂow cytometer (BD, Becton, Dickinson and Company, Franklin Lakes, NJ, USA), and the results were treated with BD Accuri™ C6 software. In the ﬂow cytometer, the ﬂuorescence signal of at least 10,000 neutrophils per sample was collected in logarithmic mode and followed in channels 1 and 3. A polygon gate, corresponding to the neutrophil’s population, was drawn according to the light-scattering properties of neutrophils in a forward vs scatter plot. Thus, debris and other blood cells were unaccounted for in the samples.
(§5) The green ﬂuorescence corresponding to Annexin V was monitored in channel 1 and plotted as a histogram of FL1 staining, whereas the ﬂuorescence corresponding to PI was monitored in channel 3 and plotted in the same histogram as FL3 staining. Neutrophils’ cell death was expressed as a relative percentage of viable, apoptotic, late apoptotic, and necrotic cells compared to a negative control (untreated cells). […]

Data set [2] concerns PMA-stimulated human neutrophils. As to the kind of experiment: H2O2 generation by PMA-stimulated neutrophils, oxidation of Amplex Red. It is filed as cell-based. Conditions: PMA 160 nM, mean ± SEM. On the procedure:
Amplex Red is a highly sensitive and chemically stable fluorescent probe for the extracellular detection of H2O2 [82]. The methodology used previously for monitoring the modulation of the oxidative burst was adapted. In a 96-well plate, neutrophils (2 × 10^6 cells/mL) were incubated in the dark at 37 °C for 5 min with Amplex Red (25 μM), horseradish peroxidase (0.25 U/mL), and the compounds under study (10–100 μM) or DMSO (4%). Quercetin (0.3–5.0 μM) and DPI (0.01–10 μM) were used as controls. After incubation, PMA (160 nM) was added, and the fluorescence (excitation at 530 nm and emission at 590 nm) was measured in a microplate reader (Synergy HT, BioTek Instruments, Inc., Winooski, VT, USA). Obtained values correspond to the slope measured between 5 and 10 min. Effects are expressed as the percentage inhibition of Amplex Red oxidation. The results obtained represent at least three independent experiments. […] 3.4.3 Oxidation of Amplex Red
Amplex Red is a highly sensitive and chemically stable ﬂuorescent probe for the extracellular detection of H2O2 [16]. The methodology used previously for monitoring the modulation of the oxidative burst was adapted.
In a 96-well plate, neutrophils (2 x 10^6 cells/mL) were incubated in the dark at 37 °C for 5 minutes with Amplex Red (25 µM), horseradish peroxidase (0.25 U/mL) , and the compounds under study (10 - 100 µM) or DMSO (4%). Quercetin (0.3 - 5.0 µM) and DPI (0.01 - 10 µM) were used as positive controls for inhibition. After incubation, PMA (160 nM) was added, and the ﬂuorescence (excitation at 530 nm and emission at 590 nm) was measured in a microplate reader (Synergy HT, BioTek Instruments, Inc., Winooski, VT, USA). Obtained values correspond to the slope measured between 5 and 10 minutes. Eﬀects are expressed as the percentage inhibition of Amplex Red oxidation. The obtained results represent at least three independent experiments.
GraphPad Prism 6 software was used to plot the inhibition percentage versus compound concentration curves, enabling the determination of the concentration required to achieve 50% inhibition (IC50). GraphPad Prism 6 software was also used to perform all statistical analyses.
[…] was estimated by applying the one-way analysis (ANOVA), followed by the Bonferroni’s multiple comparisons test. In all cases, p-values < 0.05 were considered statistically signiﬁcant. The results are expressed as mean ± standard error of the mean (SEM).

Data set [3] in a line: Neutrophils' apoptosis versus necrosis, Annexin V/PI flow cytometry. It is filed as cell-based, human. The note with it: human; 50 μM; representative plot, Figure 2; read-out: Q2-LL, viable cells (AV−/PI−). The procedure:
as §1, §2, §3, §4, §5

[4] abbreviates: tested concentrations, up to 100 μM.

As for “3-Hydroxy-2-(galactopyranosyl)propyl dodecanoate [Compound 1e]”, the values for the Cytotoxicity in neutrophils result in data set [1] (50 μM) and in data set [1] (setting [4]) were “no cytotoxicity” and “non-cytotoxic”, respectively. For the same compound, the “Amplex Red: highest obtained % of inhibition” value in data set [2] (at 50 µM) was less than 20% ^50µM.
Consider “3-Hydroxy-2-galactopyranosylpropyl dioctyl phosphate [Compound 1b]”, for which the Cytotoxicity in neutrophils entry in data set [1] (25 μM) is recorded as “did not exhibit significant cytotoxicity”; in data set [1] (50 μM), “cytotoxic effects”. In data set [1] (50 μM), the “Induction of late apoptosis in neutrophils” value is recorded as “induce late apoptosis”. Also, in data set [2] (at 25 µM), the “Amplex Red: highest obtained % of inhibition” value is recorded as less than 20% ^25µM.
As for `OCC(CO)OC1OC(CO)C(O)C(O)C1O` [Compound 1a, 2-O-D-(galactopyranosyl)glycerol], the Cytotoxicity in neutrophils result in data set [1] (setting [4]) is “no cytotoxic activity”. In addition, the inhibition at 50 µM in data set [2] (Homo sapiens, Neutrophil, at 50 µM, read-out: Amplex Red: highest obtained % of inhibition) was less than 20%.
Regarding `CCCCCCCCCCCC(=O)OCC(CO)OC1OC(COP(=O)(OCCN)OCCN)C(O)C(O)C1O` (centres unmarked) [Compound 1h, 2-(6-(bis(2-Aminoethoxy))phosphoryl)galactopyranosyl-3-hydroxypropyl dodecanoate], the viability at 45 min, 50 µM in data set [3] was 53%. The Cytotoxicity in neutrophils entry in data set [1] (25 μM) is given as “did not exhibit significant cytotoxicity”. In data set [1] (50 μM), the Cytotoxicity in neutrophils result is “cytotoxic effects” and the “Induction of late apoptosis in neutrophils” value was “induce late apoptosis”. Moreover, in data set [2] (Homo sapiens, Neutrophil, at 25 µM, read-out: Amplex Red: highest obtained % of inhibition), the inhibition at 25 µM was less than 20%.

Source of the values: PMC12251482, “Floridoside Phosphotriester Derivatives: Synthesis and Inhibition of Human Neutrophils’ Oxidative Burst” (Molecules, 2025).
